Test results reported in patent US6187802A, “Substituted 4-arylmethylene-2-imino-2,3-dihydrothiazoles and derivatives and their pharmaceutical use” (Knoll Aktiengesellschaft, priority 1997, dated 2001).
Structures can show the parent of a compound that is named as a salt.

Key:
[1] = target: T1, noradrenaline (NA) reuptake sites (Rattus norvegicus, UniProt Q63380); assay: displacement of [3H]nisoxetine from noradrenaline reuptake sites, frontal cortical membranes; details: 10^-6 M test compound, [3H]nisoxetine 0.6 nM, one test only, read-out: NA uptake (% displacement of specific binding of tritiated ligand)
T1 construct: Frontal cortical tissue from the brains of male Sprague-Dawley rats; from tissue; host or cells: rat brain frontal cortex (crude synaptosomes in A3, washed membranes in A6)
T1 sequence (Q63380 1-617): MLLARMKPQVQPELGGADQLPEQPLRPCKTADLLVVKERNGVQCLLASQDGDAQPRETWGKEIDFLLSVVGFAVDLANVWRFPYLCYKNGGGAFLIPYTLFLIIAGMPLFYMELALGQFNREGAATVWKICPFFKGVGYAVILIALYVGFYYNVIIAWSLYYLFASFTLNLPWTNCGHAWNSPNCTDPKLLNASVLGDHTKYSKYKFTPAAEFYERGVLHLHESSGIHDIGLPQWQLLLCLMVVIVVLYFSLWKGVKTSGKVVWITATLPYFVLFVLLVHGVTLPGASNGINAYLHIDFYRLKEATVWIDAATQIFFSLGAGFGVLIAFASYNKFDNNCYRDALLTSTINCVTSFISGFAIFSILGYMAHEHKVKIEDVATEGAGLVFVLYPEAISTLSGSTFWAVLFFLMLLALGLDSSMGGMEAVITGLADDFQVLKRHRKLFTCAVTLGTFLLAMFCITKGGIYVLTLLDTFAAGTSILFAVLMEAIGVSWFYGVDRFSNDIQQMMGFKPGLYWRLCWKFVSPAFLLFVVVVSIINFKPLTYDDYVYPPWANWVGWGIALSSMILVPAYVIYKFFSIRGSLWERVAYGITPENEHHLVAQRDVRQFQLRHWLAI
Method: Frontal cortical tissue from the brains of male Charles River rats weighing 150-250 g was homogenised in ice-cold 50 mM Tris-HCl, pH 7.4 (at 25° C.) containing 120 mM sodium chloride and 5 mM potassium chloride (Tris buffer; 1:60 w/v) using a Kinematic polytron (speed setting 6 for 30 seconds) and centrifuged at 40,000 g for 10 minutes. The supernatant was discarded and the pellet rehomogenised in Tris buffer, 1:60 w/v, and centrifuged at 40,000 g for 10 minutes. This step was repeated twice more so that, in total, the brain tissue was homogenised and centrifuged four times. The final pellet was resuspended in 50 mM Tris-HCl, pH 7.4 containing 300 mM sodium chloride and 5 mM potassium chloride (equivalent to 25 mg wet weight of tissue/ml) and used immediately in the binding assay. All centrifugations were performed at 4° C.
Membranes (400 μl; equivalent to 10 mg wet weight of tissue/tube) were incubated with 50 μl [^3 H]nisoxetine at a single concentration of 0.6 nM and 50 μl of distilled water (total binding) or 50 μl of test compound (10^-6 M) or 50 μl of mazindol (1 μM; non-specific binding) for 4 h at 4° C.
Membrane bound radioactivity was recovered by filtration under vacuum through Skatron 11734 filters using a Skatron cell harvester. Filters were rapidly washed with ice-cold 50 mM Tris-HCl, pH 7.4 containing 120 mM sodium chloride and 5 mM potassium chloride (wash setting 9,9,0) and radioactivity determined by liquid scintillation counting (1 ml Packard MV Gold scintillator).
(§1) For each of these tests measuring the ability of compounds of Formula I to displace standard ligands from dopamine (DA), 5-hydroxytryptamine (5-HT) and noradrenaline (NA) reuptake sites in vitro, the percentage displacement of specific binding of tritiated ligand by 10^-6 M test compound was calculated in the following way:
(§2) Firstly, specific binding of tritiated ligand in the absence (A) and presence (B) of test compound was determined:
(§3) In the absence of compound:
(§4) A (dpm)=Total binding (dpm)-Non-specific binding (dpm)
(§5) In the presence of compound (10^-6 M):
(§6) B (dpm)=Binding at 10^-6 M (dpm)-Non-specific binding (dpm)
(§7) The specific binding of tritiated ligand in the presence (B) of compound was then converted to a percentage of specific binding of tritiated ligand in the absence (A) of compound:
(§8) % Specific binding at 10^-6 M=B (dpm)/A(dpm)×100
(§9) The percentage displacement of specific binding of trtiated ligand by the test compound (10^-6 M) was then obtained by subtraction of the percentage specific binding in the presence of compound from the percentage specific binding in the absence of compound, which is taken as the maximum binding and so equals 100%:
(§10) % Displacement at 10^-6 M=100-% Specific binding at 10^-6 M.
(§11) The values given below in Table 2 for examples 6 to 76 are % displacement of specific binding of tritiated ligand by 10^-6 M test compound and represent results from one test only. IA refers to <50% displacement.

[2] = target: T2, dopamine (DA) reuptake sites (Rattus norvegicus, UniProt P23977); assay: displacement of [3H]GBR 12935 from dopamine reuptake sites, striatal membranes; assay type: binding; details: 10^-6 M test compound, [3H]GBR 12935 1 nM, one test only, read-out: DA uptake (% displacement of specific binding of tritiated ligand)
T2 construct: Striatal tissue from the brains of male Charles River rats weighing 150-250 g; from tissue; host or cells: rat brain striatum (crude synaptosomes in A1, washed membranes in A4)
T2 sequence (P23977 whole entry): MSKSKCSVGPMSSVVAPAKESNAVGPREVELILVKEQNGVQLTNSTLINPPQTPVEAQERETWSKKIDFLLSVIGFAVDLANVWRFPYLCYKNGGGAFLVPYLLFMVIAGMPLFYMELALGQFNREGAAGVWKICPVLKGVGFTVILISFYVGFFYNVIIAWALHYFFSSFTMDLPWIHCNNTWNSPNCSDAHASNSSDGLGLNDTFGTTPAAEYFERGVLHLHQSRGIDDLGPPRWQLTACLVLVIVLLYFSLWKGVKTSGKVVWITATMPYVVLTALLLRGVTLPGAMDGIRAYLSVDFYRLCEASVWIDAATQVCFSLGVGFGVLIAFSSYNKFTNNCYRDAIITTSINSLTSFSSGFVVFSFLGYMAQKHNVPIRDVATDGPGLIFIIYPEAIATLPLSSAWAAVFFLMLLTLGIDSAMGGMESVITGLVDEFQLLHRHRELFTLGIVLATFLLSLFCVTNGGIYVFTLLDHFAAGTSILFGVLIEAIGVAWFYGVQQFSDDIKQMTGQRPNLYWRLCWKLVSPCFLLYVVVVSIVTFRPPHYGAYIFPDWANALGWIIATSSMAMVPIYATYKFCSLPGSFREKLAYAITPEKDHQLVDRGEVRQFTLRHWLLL
Method: Striatal tissue from the brains of male Charles River rats weighing 150-250 g was homogenised in ice-cold 0.32M sucrose (1:80 w/v) using a motor driven teflon pestle (12 strokes, 800 rpm) and centrifuged at 1000 g for 12 minutes. The supernatant was stored on ice and the pellet was resuspended in 0.32M sucrose (1:80 w/v) and centrifuged at 850 g for 10 minutes. Combined supernatants were diluted to 1:320 w/v with ice-cold 50 mM Tris-HCl, pH 7.4 (at 25° C.) containing 200 mM sodium chloride and 5 mM potassium chloride (Tris buffer) and centrifuged at 40,000 g for 10 minutes. The resulting pellet was resuspended in 10 ml of 50 mM Tris buffer, incubated at 37° C. for 10 min, diluted in 50 mM Tris buffer (1:320 w/v) and recentrifuged at 40,000 g for 10 minutes. The final pellet was resuspended in 50 mM Tris buffer (equivalent to 1.25 mg wet weight of tissue/ml) and used immediately in the binding assay. All centrifugations were carried out at 4° C.
Membranes (800 μl; equivalent to 1 mg wet weight of tissue/tube) were incubated with 100 μl [^3 H]GBR 12935 at a single concentration of 1 nM and 100 μl of distilled water (total binding) or 100 μl of test compound (10^-6 M) or 100 μl of mazindol (1 μM; non-specific binding) for 90 min at 4° C.
Membrane bound radioactivity was recovered by filtration under vacuum through Whatman GF/C filters, pre-soaked for 1 h in 0.5% polyethylenimine,using a Brandel cell harvester. Filters were rapidly washed with 16 ml of ice-cold 50 mM Tris-HCl, pH 7.4 and radioactivity determined by liquid scintillation counting (2 ml Packard MV Gold scintillator).
as §1, §2, §3, §4, §5, §6, §7, §8, §9, §10, §11

[3] = target: T3, 5-hydroxytryptamine (5-HT) reuptake sites (Rattus norvegicus, UniProt P31652); assay: displacement of [3H]paroxetine from 5-HT reuptake sites, frontal cortical membranes; assay type: binding; details: 10^-6 M test compound, [3H]paroxetine 30 pM, one test only, read-out: 5-HT uptake (% displacement of specific binding of tritiated ligand)
T3 construct: Frontal cortical tissue from the brains of male Sprague-Dawley rats; from tissue; host or cells: rat brain frontal cortex (crude synaptosomes in A2, washed membranes in A5)
T3 sequence (P31652 whole entry): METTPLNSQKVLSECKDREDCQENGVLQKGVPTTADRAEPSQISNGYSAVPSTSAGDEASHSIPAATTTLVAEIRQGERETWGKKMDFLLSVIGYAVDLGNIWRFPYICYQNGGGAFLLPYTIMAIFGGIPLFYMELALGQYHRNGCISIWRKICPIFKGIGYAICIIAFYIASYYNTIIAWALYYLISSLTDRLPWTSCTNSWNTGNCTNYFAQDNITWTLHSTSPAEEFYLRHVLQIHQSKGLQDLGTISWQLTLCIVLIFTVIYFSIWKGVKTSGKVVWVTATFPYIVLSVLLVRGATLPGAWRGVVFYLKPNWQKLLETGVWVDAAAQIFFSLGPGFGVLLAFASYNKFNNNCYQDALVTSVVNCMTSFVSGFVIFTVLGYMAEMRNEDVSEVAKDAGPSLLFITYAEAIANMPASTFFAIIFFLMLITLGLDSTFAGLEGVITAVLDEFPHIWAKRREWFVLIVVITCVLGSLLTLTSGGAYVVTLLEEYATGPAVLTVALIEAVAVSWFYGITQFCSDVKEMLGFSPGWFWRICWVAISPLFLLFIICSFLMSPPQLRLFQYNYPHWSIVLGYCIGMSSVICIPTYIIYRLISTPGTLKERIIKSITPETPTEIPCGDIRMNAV
Method: Frontal cortical tissue from the brains of male Charles River rats weighing 150-250 g was homogenised in ice-cold 0.25M sucrose (1:30 w/v) using a Kinematic polytron (speed setting 6 for 30 seconds) and centrifuged at 1000 g for 12 minutes. The supernatant was stored on ice and the pellet was resuspended in 0.25M sucrose (1:20 w/v) and centrifuged at 850 g for 10 minutes. Combined supernatants were diluted to 1:100 w/v with ice-cold 50 mM Tris-HCl, pH 7.5 (at 25° C.) containing 120 mM sodium chloride and 5 mM potassium chloride (Tris buffer) and centrifuged at 40,000 g for 10 minutes. The resulting pellet was resuspended in 50 mM Tris buffer (1:100 w/v) and recentrifuged at 40,000 g for 10 minutes. The final pellet was resuspended in 50 mM Tris buffer (equivalent to 2 mg wet weight of tissue/ml) and used immediately in the binding assay. All centrifugations were carried out at 4° C.
Membranes (1000 μl; equivalent to 2 mg wet weight of tissue/tube) were incubated with 200 μl [^3 H]paroxetine at a single concentration of 30 pM and 200 μl of distilled water (total binding) or 200 μl of test compound (10^-6 M) or 200 μl of citalopram (1 μM; non-specific binding) for 2 h at 22° C.
Membrane bound radioactivity was recovered by filtration under vacuum through Whatman GFIC filters using a Brandel cell harvester. Filters were rapidly washed with 16 ml ice-cold 50 mM Tris buffer and radioactivity determined by liquid scintillation counting (2 ml Packard MV Gold scintillator).
as §1, §2, §3, §4, §5, §6, §7, §8, §9, §10, §11

Compound	inhibition at 1 µM [1] [%]	inhibition at 1 µM [2] [%]	inhibition at 1 µM [3] [%]
C=CCN=c1scc(C2(c3ccc4ccccc4c3)CCC2)n1CC=C [Example 42, 3-Allyl-2-allylimino-4-[1-(2-naphthyl)cyclobutyl]-2,3-dihydrothiazole hydrobromide]	93	113	101
Clc1ccc(C2(c3csc(=NCC4CC4)n3CC3CC3)CCC2)cc1Cl [Example 21, 4-[1-(3,4-Dichlorophenyl)cyclobutyl]-3-cyclopropylmethyl-2-cyclopropylmethylimino-2,3-dihydrothiazole hydrobromide]	50	108	103
CCN=c1scc(C2(c3ccc(Cl)c(Cl)c3)CCC2)n1CC [Example 15, 4-[1-(3,4-Dichlorophenyl)cyclobutyl]-3-ethyl-2-ethylimino-2,3-dihydrothiazole hydrobromide]	99	115	102
Cc1ccccc1N=c1scc(C2(c3ccc4ccccc4c3)CCC2)n1-c1ccccc1C [Example 51, 4-[1-(2-Naphthyl)cyclobutyl)-3-(o-tolyl)-2-(o-tolylimino)-2,3-dihydrothiazole hydrobromide]	< 50	69	54
Cc1ccc(N=c2scc(C3(c4ccc5ccccc5c4)CCC3)n2-c2ccc(C)cc2)cc1 [Example 50, 4-[1-(2-Naphthyl)cyclobutyl]-3-(p-tolyl)-2-(p-tolylimino)-2,3-dihydrothiazole hydrobromide]	< 50	68	< 50
COc1ccc(CCN=c2scc(C3(c4ccc5ccccc5c4)CCC3)n2CCc2ccc(OC)c(OC)c2)cc1OC [Example 55, 3-(3,4-Dimethoxyphenethyl)-2-(3,4-dimethoxyphenethylimino)-4-[1-(2-naphthyl)cyclobutyl]-2,3-dihydrothiazole hydrobromide]	< 50	91	< 50
COc1ccc(CCN=c2scc(C3(c4ccc(Cl)cc4)CCC3)n2CCc2ccc(OC)c(OC)c2)cc1OC [Example 65, 4-[1-(4-Chlorophenyl)cyclobutyl]-3-(3,4-dimethoxyphenethyl)-2-(3,4-dimethoxyphenethylimino)-2,3dihydrothiazole hydrobromide]	< 50	54	< 50
CC(C)N=c1scc(C2(c3ccc(Cl)c(Cl)c3)CCC2)n1C(C)C [Example 17, 4-[1-(3,4-Dichlorophenyl)cyclobutyl]-3-isopropyl-2-isopropylimino-2,3-dihydrothiazole hydrobromide]	63	112	95
CCCCN=c1scc(C2(c3ccccc3)CCCCC2)n1CCCC [Example 61, 3-Butyl-2-butylimino-4-(1-phenylcyclohexyl)-2,3-dihydrothiazole hydrobromide]	< 50	68	< 50
C1=C(C2(c3cc4ccccc4s3)CCC2)N2CCN=C2S1 [Example 12, 3-[1-(benzo[b]thiophen-2-yl)cyclobutyl]-5,6-dihydroimidazo[2,1-b]thiazole hydrobromide]	95	121	77
Clc1ccc(C2(c3csc(=NCc4cccnc4)n3Cc3cccnc3)CCC2)cc1Cl [Example 25, 4-[1-(3,4-Dichlorophenyl)cyclobutyl]-3-(3-pyridylmethyl)-2-(3-pyridylmethylimino)-2,3-dihydrothiazole hydrobromide]	66	108	95
c1ccc(CN=c2scc(C3(c4ccc5ccccc5c4)CCC3)n2Cc2ccccc2)cc1 [Example 44, 3-Benzyl-2-benzylimino-4-[1-(2-naphthyl)cyclobutyl]-2,3-dihydrothiazole hydrobromide]	< 50	96	72
